Converted amounts (≈) assume the structure as drawn. “And” between values parts separate entries of the source, which are not always exact repeats. Equal values may be shown once. “Also recorded” adds a separate entry of the source. Read-outs that look alike come from different tables or passages of the source.
Tests used:
[1] = system: A. fischeri; assay: Bioluminescence (light) inhibition test, ISO 11348-3; conditions: for EC50 / inhibition at 3.125 µg/mL: Aliivibrio fischeri, 0.5 h; for EC50: read-out: EC50 (light inhibition), 30 min exposure; for inhibition at 3.125 µg/mL: read-out: light inhibition
Method: The bioluminescence inhibition test (30 min) was detected with the A. fischeri (NRRLB-11177) supplied by MicroBioTest, Gent, Belgium, and according to ISO 11348-3 [59]. The bioluminescence was determined by the luminometer Microtox (Model 500 analyzer, New Castle, DE, USA) at 490 nm. To provide the required osmotic pressure for the bacterium, the stock solution was diluted to perform the test in saline water solution (2% sodium chloride, NaCl). The concentrations tested correspond to 0.19, 0.39, 0.78, 1.56, and 3.12 mg L^−^1 and a negative control of 0 mg L^−^1. Toxicity tests were performed in triplicate with a control, and the percentage luminescence inhibition was expressed as the ratio of the decrease in bacterial light production to the remaining light.
(§1) Data analysis was conducted using RStudio for Windows (Version 2024.09.1). Dose–response models were applied to estimate the effective concentrations (EC10 and EC50) for the tested endpoints using the “drc” package. For D. magna, the data were modeled with a binomial log-logistic approach, whereas data for R. subcapitata, A. fischeri and L. sativum were fitted to log-logistic models with the upper limit constrained to 100. Furthermore, to ensure assay sensitivity and validity, a positive control exposed to potassium dichromate for the aquatic species and copper chloride for C. elegans was tested under the same experimental conditions.

[2] = system: C. elegans; assay: Nematode survival bioassay in soil, ASTM E2172-01; type: in vivo; conditions: for mortality: 24 h exposure, across tested concentrations (1.73 to 94 mg L^−1); for Test Score: N2, Bristol variant (wild type), Caenorhabditis elegans, in vivo, 24 h
Method: The nematode bioassay was carried out using the Caenorhabditis elegans wild-type strain N2, Bristol variant, according to the ASTM E2172—01 Standard Method (2014). Culture was maintained on NGM (nematode growth media) plates seeded with Escherichia coli (uracil-deficient OP50 strain) and stored at 20 °C. The tests were conducted using age-synchronized adult nematodes, obtained by lysing gravid nematodes with a bleaching solution (10 g/L NaOH, 10.5 g/L NaOCl), followed by centrifugation and washing with an M9 mineral medium (2.2 mM KH2PO4, 4.2 mM Na2HPO4, 85.6 mM NaCl, and 1 mM MgSO4). The synchronized nematodes were then transferred to NGM agar plates and left to recover overnight.
Soil samples (2.33 g) were hydrated to 35–45% of their dry weight using K-medium in centrifuge tubes. Ten worms were transferred to each tube and exposed to the soil samples for 24 h at 20 °C. […] Treatments were performed in triplicate, with worms kept unfed during the exposure period. Nematodes were extracted by centrifugation (2000 rpm, 2 min) using silica gel (Ludox TM 50, Sigma-Aldrich, St. Louis, MO, USA) with a specific density of 1.13 g/mL. The supernatant was then transferred to 100 mm glass Petri dishes and washed with Keller (K) medium. Extracted individuals were counted under a microscope (40× magnification), with mortality as the measured endpoint. Test validity required a minimum of 80% nematode recovery and 90% survival in the control group.

[3] = Stability (photodegradation) in ISO 8692:2012 medium, quantified by HPLC; type: physicochemical; conditions: 20 °C, 254 nm light
Method: For the photodegradation assays, 3 mg of MAT and 3 mg of LAC were separately dissolved in 150 µL of DMSO and added to 3 mL of International Organization for Standardization (ISO) 8692:2012 medium. The solutions were exposed to 254 nm of light for up to 16 days. At specific time intervals (1, 2, 3, 6, and 16 days), 400 µL of the solutions were collected and analyzed by TLC using n-hexane/EtOAc (75:25, v/v) as the eluent, with MAT and LAC standard samples serving as references.
HPLC analysis was performed in isocratic mode and with the same ISO medium solutions, using MeCN–H2O (0.1% v/v formic acid) at a 60:40 (v/v) ratio as the mobile phase, with a flow rate of 0.5 mL/min. Detection was carried out at 220 nm with a 20 μL injection loop, monitoring the chromatogram for over 50 min to identify potential degradation products. Each sample was analyzed in triplicate. Control solutions containing only the culture medium and DMSO (without MAT or LAC) were also analyzed under identical conditions to ensure specificity.
Calibration curves for MAT and LAC were prepared by injecting standard samples at concentrations ranging from 0.022 to 2.2 mg for MAT and 0.004 to 2.2 mg for LAC. These standards were used to optimize the method and quantify the degradation products.

[4] = system: D. magna; assay: Crustacean immobility acute test, ISO 6341; type: in vivo, Daphnia magna; conditions: for immobilization: 6.91 mg L^−1, 24 h exposure; for EC50: Daphnia magna, read-out: EC50 (immobilization); for Hazard Ranking: GHS ranking of 48 h EC50, this study
Method: The immobility acute test (48 h) with D. magna was conducted according to ISO 6341 [60]. D. magna was selected from laboratory stock cultures at the Hygiene Laboratory of the Department of Biology of the University of Naples Federico II, placed in ISO medium, and fed daily with the microalgae R. subcapitata. For the test, five neonates (third brood, <24 h old) were exposed in 10 mL of ISO medium to the following corresponding concentrations: 0.22, 0.43, 0.86, 1.73, 3.46, 6.91, 13.83, 27.65, and 55.30 mg L^−^1 and a negative control of 0 mg L^−^1. Each concentration had 4 replicates, and immobility was assessed after 24 and 48 h of exposure.
as §1

[5] = system: R. subcapitata; assay: Algal growth inhibition test, ISO 8692; conditions: for Test Score / EC10 (growth inhibition): 72 h exposure; for EC50 / inhibition at 3.125 µg/mL: Raphidocelis subcapitata; for EC50: read-out: EC50 (growth inhibition); for inhibition at 3.125 µg/mL: read-out: growth inhibition
Method: The algal growth inhibition test (72 h) with R. subcapitata was carried out according to ISO 8692 [58]. The algal density was determined by spectrophotometric analysis (DR5000, Hach Lange GbH, Weinheim, Germany) at 670 nm. The concentrations tested correspond to 0.19, 0.39, 0.78, 1.56, and 3.12 mg L^−^1 and a negative control of 0 mg L^−^1. The growth inhibition was calculated as the difference in growth at the end of the test of the sample and the control group. Toxicity tests were carried out in triplicate.
as §1

[6] = system: L. sativum; assay: Plant germination and growth phytotoxicity test; type: in vivo, Lepidum sativum; conditions: 72 h exposure; for germination: tested concentrations up to 94 mg L^−1; for EC50: Lepidium sativum, read-out: EC50 (shoot length)
Method: Lepidum sativum seeds were purchased from Microbiotests (Gent, Belgium) and were used for the phytotoxicity test. Tests were conducted following the standard method. Seeds (n = 10) were placed in 10 g of soil medium and exposure was carried out in triplicates. […] Germination (%) and root elongation inhibition were combined to calculate the germination index (GI, %).

[7] = Hazard classification and weight score over the test battery; conditions: for hazard classification: classes I (no acute hazard) to V (very high acute hazard); for Weight Score [%]: overall, all tests performed
Method: When possible, the EC50 values derived from the tests were used for toxicity classification following the methodology in [65]. Compounds were categorized into five hazard classes, ranging from Class I (no acute hazard) to Class V (very high acute hazard). Additionally, weight scores for each test were calculated to quantify the relative level of toxicity, with scores assigned as follows: 0 (no significant toxic effect), 1 (significant toxic effect), 2 (toxic effect), and 3 (100% toxic effect). The weight score for each compound, based on the tests performed, was expressed as a percentage.

[8] = 30 min exposure, standard error in brackets, n = 3
[9] = estimated from the model, outside of the tested concentrations
[10] = standard error in brackets, n = 3

Compound	Test Score ([1]; 30 min exposure)	EC10 (light inhibition) [1, 8]	inhibition at 3.125 µg/mL [1]	mortality [2]	Test Score [2]	Degraded Compound (%) ([3]; exposition time 1 day)	Degraded Compound (%) ([3]; exposition time 2 days)	Degraded Compound (%) ([3]; exposition time 3 days)	Degraded Compound (%) ([3]; exposition time 6 days)	immobilization [4]	EC10 (immobilization) ([4]; 24 h exposure)	EC10 (immobilization) ([4]; 48 h exposure)	EC50 (immobilization) ([4]; 48 h exposure)	Test Score ([4]; 48 h exposure)	EC50 ([4]; 24 h, 24 h exposure)	EC50 ([4]; 48 h, 48 h exposure)	Hazard Ranking [4]	Test Score [5]	EC50 ([5]; 72 h)	inhibition at 3.125 µg/mL ([5]; 72 h)	also measured
CCCC#C/C=C1/C=CC(=O)O1 [LAC, (4Z)-lachnophyllum lactone]	1	0.524 mg L^−1 and 0.524 (0.212) mg L^−1	< 40%	no mortality	0	8.5%	19.23%	26.58%	28.24%	100%	1.67 (0.313) mg L^−1	1.499 mg L^−1 and 1.49 (1.063) mg L^−1	1.728 µg/mL (≈ 10.7 µM)	3	2.44 µg/mL (≈ 15 µM)	1.72 µg/mL (≈ 10.6 µM)	*** (toxic (<1 mg L^−1 ≤ 10 mg L^−1))	1	9.88 µg/mL (≈ 60.9 µM)	36%	EC50 (light inhibition) ([1]; 30 min exposure, estimated from the model, outside of the tested concentrations): 8.078 µg/mL (≈ 49.8 µM); EC50 [1, 9]: 8.07 µg/mL (≈ 49.8 µM); EC10 (growth inhibition) [5, 10]: 0.304 mg L^−1 and 0.304 (0.125) mg L^−1; EC10 (shoot length) [6]: 70.87 mg L^−1 and 70.87 (195.32) mg L^−1; Test Score [6]: 3; germination [6]: no effects; also recorded: unaffected; EC50 [6]: 85.9 µg/mL (≈ 530 µM); hazard classification [7]: Class II; Weight Score [%] [7]: 53.33%
C/C=C\C#C/C=C1/C=CC(=O)O1 [MAT, (4Z,8Z)-matricaria lactone]	2	0.063 mg L^−1 and 0.063 (0.013) mg L^−1	~80%	no mortality	0	90% and 89.74%	90.06%	90.38%	94.55%	100%	3.11 (1.894) mg L^−1	1.215 mg L^−1 and 1.21 (0.294) mg L^−1	2.239 µg/mL (≈ 14 µM)	3	3.56 µg/mL (≈ 22.2 µM)	2.23 µg/mL (≈ 13.9 µM)	*** (toxic (<1 mg L^−1 ≤ 10 mg L^−1))	0	4.52 µg/mL (≈ 28.2 µM)	-2.4%	EC50 [1, 10]: 0.642 µg/mL (≈ 4.01 µM); growth inhibition (average) ([5]; 72 h, concentrations 0.19 to 1.56 mg L^−1, negative = stimulation): approximately −10%; EC10 (growth inhibition) [5, 9]: 3.417 mg L^−1 and 3.417 (0.620) * mg L^−1; EC10 (shoot length) [6]: 38.48 mg L^−1 and 38.48 (23.979) mg L^−1; Test Score [6]: 2; germination [6]: no effects; also recorded: unaffected; EC50 [6]: 82.3 µg/mL (≈ 514 µM); hazard classification [7]: Class II; Weight Score [%] [7]: 46.66%
